{"source": "patent US3969532A", "about": "“1-Aryl-3-(2-hydroxyethyl) thioureas for treating depression” (The Dow Chemical Company, priority 1975, dated 1976)", "test_system": "reserpine-induced ptosis", "assay": "Antagonism of reserpine-induced ptosis in mice (antidepressant test)", "format": "in vivo", "settings": "for ED50: Mus musculus, 1.25 h; for inhibition of reserpine-induced ptosis (in words): comparative trials, dosages of 60 mg/kg (i.p.)", "key": {"[1]": {"settings": "mice, compound oral 30 minutes before i.p. reserpine, ptosis noted 45 minutes after reserpine, read-out: ED50 (median effective dose protecting 50% of mice from reserpine-induced ptosis), oral"}, "[2]": {"settings": "ip, mice, compound i.p. 30 minutes before i.p. reserpine, ptosis noted 45 minutes after reserpine, read-out: ED50 (median effective dose protecting 50% of mice from reserpine-induced ptosis), i.p."}}, "note": "Where two headings read alike, the source gives them in different places.", "method": "The antidepressant properties of the compounds employed in the methods of the present invention are determined by measuring their ability to counteract ptosis induced in animals by the intraperitoneal injection of reserpine. […] Forty-five minutes after the administration of reserpine, the presence or absence of ptosis is noted. The percent inhibition of ptosis is noted and the median effective dose (ED50) of each test ingredient which protected 50% of the test mice from reserpine-induced ptosis was calculated.", "data": [{"smiles": "Cc1ccc(CNC(=S)NCCO)c(C)c1", "note": "[Compound 1, 1-(2,4-dimethylbenzyl)-3-(2-hydroxyethyl)thiourea]", "values": [{"measurement": "ED50", "setting": "[1]", "result": 6.8, "unit": "mg/kg"}, {"measurement": "ED50", "setting": "[2]", "result": 11, "unit": "mg/kg"}]}, {"smiles": "CN(C)CCCN1c2ccccc2CCc2ccccc21", "note": "[Imipramine]", "values": [{"measurement": "ED50", "setting": "po, read-out: ED50 (median effective dose protecting 50% of mice from reserpine-induced ptosis), oral", "result": 14, "unit": "mg/kg"}]}, {"smiles": "COc1ccc(NC(=S)NCCO)c(OC)c1", "note": "[Compound 3, 1-(2,4-dimethoxyphenyl)-3-(2-hydroxyethyl)thiourea]", "values": [{"measurement": "ED50", "setting": "[2]", "result": 38, "unit": "mg/kg"}]}, {"smiles": "COc1ccc(NC(=S)NCCO)cc1OC", "note": "[3,4-dimethoxy]", "values": [{"measurement": "inhibition of reserpine-induced ptosis (in words)", "result": "did not inhibit reserpine-induced ptosis"}]}, {"smiles": "COc1ccc(NC(=S)NCCO)c(C)c1", "note": "[Compound 2, 1-(4-methoxy-2-methylphenyl)-3-(2-hydroxyethyl)thiourea]", "values": [{"measurement": "ED50", "setting": "[1]", "result": 16.2, "unit": "mg/kg"}, {"measurement": "ED50", "setting": "[2]", "result": 10, "unit": "mg/kg"}]}, {"smiles": "CN(C)CCC=C1c2ccccc2COc2ccccc21", "note": "[Doxepin]", "values": [{"measurement": "ED50", "setting": "[1]", "result": 27, "unit": "mg/kg"}, {"measurement": "ED50", "setting": "[2]", "result": 27, "unit": "mg/kg"}]}, {"smiles": "COc1ccccc1NC(=S)NCCO", "note": "[Compound 2-methoxy]", "values": [{"measurement": "inhibition of reserpine-induced ptosis (in words)", "result": "did not inhibit reserpine-induced ptosis"}]}]}
